Experimental data published in patent publication US10131652B2, “Pyrimidinyloxy benzene derivatives as herbicides” (E. I. DU PONT DE NEMOURS AND COMPANY, priority 2014, dated 2018).

Tests used:
Assay in all cases: Test D pre-/postemergence plant response
Format in all cases: in vivo
[1] = test system: lambsquarters (Chenopodium album)
Outline: (§1)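 Visual rating, 0–100 scale (0 = no effect, 100 = complete control), versus untreated controls 13 to 15 days after treatment in greenhouse. Preemergence: seeds in loam/sand soil. Postemergence: 2 to 18 cm plants, 1- to 4-leaf stage, peat-based medium. Compounds formulated in non-phytotoxic solvent plus surfactant.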

[2] = test system: giant foxtail (Setaria faberii)
Outline: as §1

[3] = test system: ragweed (common ragweed, Ambrosia elatior)
Outline: as §1

[4] = test system: soybean (Glycine max)
Outline: as §1

[5] = test system: oilseed rape (Brassica napus)
Outline: as §1

[6] = test system: pigweed (Amaranthus retroflexus)
Outline: as §1

[7] = test system: blackgrass (Alopecurus myosuroides)
Outline: as §1

[8] = test system: velvetleaf (Abutilon theophrasti)
Outline: as §1

[9] = test system: large (Lg) crabgrass (Digitaria sanguinalis)
Outline: as §1

[10] = test system: yellow nutsedge (Cyperus esculentus)
Outline: as §1

[11] = test system: waterhemp (common waterhemp, Amaranthus rudis)
Outline: as §1

[12] = test system: johnsongrass (Sorghum halepense)
Outline: as §1

[13] = test system: corn (Zea mays)
Outline: as §1

[14] = test system: winter wheat (Triticum aestivum)
Outline: as §1

[15] = test system: morningglory (Ipomoea coccinea)
Outline: as §1

[16] = test system: galium (catchweed bedstraw, Galium aparine)
Outline: as §1

[17] = test system: barnyardgrass (Echinochloa crus-galli)
Outline: as §1

[18] = test system: Italian ryegrass (Lolium multiflorum)
Outline: as §1

[19] = Postemergence, 31 g ai/ha, scale 0 to 100 (0 no effect, 100 complete control)
[20] = Postemergence, 62 g ai/ha, scale 0 to 100, 0 no effect, 100 complete control
[21] = Postemergence, 125 g ai/ha, scale 0 to 100, 0 no effect, 100 complete control
[22] = Preemergence, 16 g ai/ha, scale 0 to 100 (0 no effect, 100 complete control)
[23] = Preemergence, 31 g ai/ha, scale 0 to 100 (0 no effect, 100 complete control)
[24] = Preemergence, 62 g ai/ha, scale 0 to 100 (0 no effect, 100 complete control)
[25] = Postemergence, 16 g ai/ha, scale 0 to 100 (0 no effect, 100 complete control)

## FC(F)Oc1cccc(Oc2ncc(Cl)cn2)c1-c1cc(C(F)F)on1 [Compound 131]
[1]; [19]
  Lambsquarters plant response rating: 98
[1]; [20]
  Plant response rating, Lambsquarters: 98
[1]; [21]
  Plant response rating, Lambsquarters: 100
[1]; Preemergence, 125 g ai/ha
  Plant response rating (scale 0 to 100), Lambsquarters: 98
[1]; [22]
  Plant response rating, Lambsquarters: 75
[1]; [23]
  Plant response rating, Lambsquarters: 80
[1]; [24]
  Plant response rating, Lambsquarters: 85
[2]; [25]
  Foxtail, Giant plant response rating: 10
[2]; [19]
  Foxtail, Giant plant response rating: 10
[2]; [20]
  Plant response rating, Foxtail, Giant: 15
[2]; [21]
  Plant response rating, Foxtail, Giant: 15
[2]; Preemergence, 125 g ai/ha
  Plant response rating (scale 0 to 100), Foxtail, Giant: 100
[2]; [22]
  Plant response rating, Foxtail, Giant: 80
[2]; [23]
  Plant response rating, Foxtail, Giant: 100
[2]; [24]
  Plant response rating, Foxtail, Giant: 100
[3]; [19]
  Ragweed plant response rating: 45
[3]; [20]
  Plant response rating, Ragweed: 65
[3]; [21]
  Plant response rating, Ragweed: 75
[3]; Preemergence, 125 g ai/ha
  Plant response rating (scale 0 to 100), Ragweed: 25
[3]; [22]
  Plant response rating, Ragweed: 0
[3]; [23]
  Plant response rating, Ragweed: 0
[3]; [24]
  Plant response rating, Ragweed: 0
[4]; [19]
  Soybean plant response rating: 15
[4]; [20]
  Plant response rating, Soybean: 75
[4]; [21]
  Plant response rating, Soybean: 65
[4]; Preemergence, 125 g ai/ha
  Plant response rating (scale 0 to 100), Soybean: 85
[4]; [22]
  Plant response rating, Soybean: 5
[4]; [23]
  Plant response rating, Soybean: 10
[4]; [24]
  Plant response rating, Soybean: 50
[5]; [19]
  Oilseed Rape plant response rating: 45
[5]; [20]
  Plant response rating, Oilseed Rape: 80
[5]; [21]
  Plant response rating, Oilseed Rape: 85
[5]; Preemergence, 125 g ai/ha
  Plant response rating (scale 0 to 100), Oilseed Rape: 95
[5]; [22]
  Plant response rating, Oilseed Rape: 10
[5]; [23]
  Plant response rating, Oilseed Rape: 50
[5]; [24]
  Plant response rating, Oilseed Rape: 85
[6]; [19]
  Pigweed plant response rating: 98
[6]; [20]
  Plant response rating, Pigweed: 98
[6]; [21]
  Plant response rating, Pigweed: 100
[6]; Preemergence, 125 g ai/ha
  Plant response rating (scale 0 to 100), Pigweed: 100
[6]; [22]
  Plant response rating, Pigweed: 100
[6]; [23]
  Plant response rating, Pigweed: 100
[6]; [24]
  Plant response rating, Pigweed: 100
[7]; [25]
  Blackgrass plant response rating: 5
[7]; [19]
  Blackgrass plant response rating: 5
[7]; [20]
  Plant response rating, Blackgrass: 5
[7]; [21]
  Plant response rating, Blackgrass: 30
[7]; Preemergence, 125 g ai/ha
  Plant response rating (scale 0 to 100), Blackgrass: 95
[7]; [22]
  Plant response rating, Blackgrass: 5
[7]; [23]
  Plant response rating, Blackgrass: 80
[7]; [24]
  Plant response rating, Blackgrass: 90
[8]; [19]
  Velvetleaf plant response rating: 65
[8]; [20]
  Plant response rating, Velvetleaf: 80
[8]; [21]
  Plant response rating, Velvetleaf: 85
[8]; Preemergence, 125 g ai/ha
  Plant response rating (scale 0 to 100), Velvetleaf: 98
[8]; [22]
  Plant response rating, Velvetleaf: 20
[8]; [23]
  Plant response rating, Velvetleaf: 65
[8]; [24]
  Plant response rating, Velvetleaf: 80
[9]; [25]
  Crabgrass, Large plant response rating: 5
[9]; [19]
  Crabgrass, Large plant response rating: 5
[9]; [20]
  Plant response rating, Crabgrass, Large: 10
[9]; [21]
  Plant response rating, Crabgrass, Large: 20
[9]; Preemergence, 125 g ai/ha
  Plant response rating (scale 0 to 100), Crabgrass, Large: 100
[9]; [22]
  Plant response rating, Crabgrass, Large: 98
[9]; [23]
  Plant response rating, Crabgrass, Large: 100
[9]; [24]
  Plant response rating, Crabgrass, Large: 100
[10]; [19]
  Nutsedge, Yellow plant response rating: 0
[10]; [20]
  Plant response rating, Nutsedge, Yellow: 5
[10]; [21]
  Plant response rating, Nutsedge, Yellow: 10
[10]; Preemergence, 125 g ai/ha
  Plant response rating (scale 0 to 100), Nutsedge, Yellow: 70
[10]; [22]
  Plant response rating, Nutsedge, Yellow: 0
[10]; [23]
  Plant response rating, Nutsedge, Yellow: 5
[10]; [24]
  Plant response rating, Nutsedge, Yellow: 5
[11]; [19]
  Waterhemp plant response rating: 90
[11]; [20]
  Plant response rating, Waterhemp: 90
[11]; [21]
  Plant response rating, Waterhemp: 98
[11]; Preemergence, 125 g ai/ha
  Plant response rating (scale 0 to 100), Waterhemp: 100
[11]; [22]
  Plant response rating, Waterhemp: 100
[11]; [23]
  Plant response rating, Waterhemp: 100
[11]; [24]
  Plant response rating, Waterhemp: 100
[12]; [19]
  Johnsongrass plant response rating: 5
[12]; [20]
  Plant response rating, Johnsongrass: 25
[12]; [21]
  Plant response rating, Johnsongrass: 45
[12]; Preemergence, 125 g ai/ha
  Plant response rating (scale 0 to 100), Johnsongrass: 85
[12]; [22]
  Plant response rating, Johnsongrass: 0
[12]; [23]
  Plant response rating, Johnsongrass: 30
[12]; [24]
  Plant response rating, Johnsongrass: 80
[13]; [25]
  Corn plant response rating: 5
[13]; [19]
  Corn plant response rating: 5
[13]; [20]
  Plant response rating, Corn: 10
[13]; [21]
  Plant response rating, Corn: 25
[13]; Preemergence, 125 g ai/ha
  Plant response rating (scale 0 to 100), Corn: 65
[13]; [22]
  Plant response rating, Corn: 0
[13]; [23]
  Plant response rating, Corn: 10
[13]; [24]
  Plant response rating, Corn: 60
[14]; [19]
  Wheat plant response rating: 0
[14]; [20]
  Plant response rating, Wheat: 0
[14]; [21]
  Plant response rating, Wheat: 0
[14]; Preemergence, 125 g ai/ha
  Plant response rating (scale 0 to 100), Wheat: 5
[14]; [22]
  Plant response rating, Wheat: 0
[14]; [23]
  Plant response rating, Wheat: 0
[14]; [24]
  Plant response rating, Wheat: 0
[15]; [19]
  Morningglory plant response rating: 75
[15]; [20]
  Plant response rating, Morningglory: 75
[15]; [21]
  Plant response rating, Morningglory: 95
[15]; Preemergence, 125 g ai/ha
  Plant response rating (scale 0 to 100), Morningglory: 85
[15]; [22]
  Plant response rating, Morningglory: 0
[15]; [23]
  Plant response rating, Morningglory: 40
[15]; [24]
  Plant response rating, Morningglory: 35
[16]; [19]
  Galium plant response rating: 85
[16]; [20]
  Plant response rating, Galium: 95
[16]; [21]
  Plant response rating, Galium: 95
[16]; Preemergence, 125 g ai/ha
  Plant response rating (scale 0 to 100), Galium: 90
[16]; [22]
  Plant response rating, Galium: 95
[16]; [23]
  Plant response rating, Galium: 30
[16]; [24]
  Plant response rating, Galium: 90
[17]; [25]
  Barnyardgrass plant response rating: 10
[17]; [19]
  Barnyardgrass plant response rating: 10
[17]; [20]
  Plant response rating, Barnyardgrass: 10
[17]; [21]
  Plant response rating, Barnyardgrass: 20
[17]; Preemergence, 125 g ai/ha
  Plant response rating (scale 0 to 100), Barnyardgrass: 100
[17]; [22]
  Plant response rating, Barnyardgrass: 30
[17]; [23]
  Plant response rating, Barnyardgrass: 75
[17]; [24]
  Plant response rating, Barnyardgrass: 85
[18]; [19]
  Ryegrass, Italian plant response rating: 5
[18]; [20]
  Plant response rating, Ryegrass, Italian: 5
[18]; [21]
  Plant response rating, Ryegrass, Italian: 25
[18]; Preemergence, 125 g ai/ha
  Plant response rating (scale 0 to 100), Ryegrass, Italian: 90
[18]; [22]
  Plant response rating, Ryegrass, Italian: 0
[18]; [23]
  Plant response rating, Ryegrass, Italian: 20
[18]; [24]
  Plant response rating, Ryegrass, Italian: 35
